Results taken from ChEMBL document CHEMBL5113486, “Hit-to-lead optimization of novel phenyl imidazole carboxamides that are active against Leishmania donovani” (Eur J Med Chem, 2022).

Tests used:
[1] = Cytotoxicity against human HepG2 cells assessed as cell growth inhibition at 100 uM; type: toxicity, cell-based; details: read-out: Activity
[2] = Cytotoxicity against human THP-1 cells assessed as cell growth inhibition; type: toxicity, cell-based
Leishmania donovani [3] = test: Antileishmanial activity against Leishmania donovani infected in human THP-1 cells assessed as growth inhibition by intramacrophage assay; type: functional, organism-based
[4] = Selectivity index, ratio of CC50 for cytotoxicity against human THP-1 cells to IC50 for antileishmanial activity against Leishmania donovani infected in human THP-1 cells; type: toxicity, cell-based; details: read-out: Ratio CC50/IC50
Leishmania donovani [5] = test: Antileishmanial activity against Leishmania donovani infected in human THP-1 cells assessed as growth inhibition at 100 uM by intramacrophage assay; type: functional; design: scale not given: the % may be the effect or the level left

| Structure (SMILES) | inhibition at 100 µM [1] [%] | CC50 [2] [µM] | IC50 (Leishmania donovani [3]) [µM] | selectivity ratio [4] | Activity (Leishmania donovani [5]) [%] |
| --- | --- | --- | --- | --- | --- |
| COc1ccc2c(c1)nc(NC(=O)c1ccc(F)cc1)n2C | < 50 | > 100 | 38 | > 2.6 | – |
| COc1ccc(-c2cnc(NC(=O)c3cccc(F)c3)n2C)cc1 | < 50 | > 100 | > 100 | – | <50 |
| Cn1c(-c2ccccc2)cnc1NC(=O)C1CCCCC1 | < 50 | > 100 | 46 | > 2.2 | – |
| Cc1cccc(-c2cnc(NC(=O)c3ccc(F)cc3)n2C)c1 | < 50 | > 100 | 79 | > 1.3 | – |
| CCn1c(-c2ccc(OC)cc2)cnc1NC(=O)c1ccc(F)cc1 | < 50 | > 100 | > 100 | > 2.6 | – |
| COc1ccc(-c2cnc(NC(=O)c3cccc(Br)c3)n2C)cc1 | < 50 | > 100 | > 100 | > 1 | – |
| Cc1ccccc1C(=O)Nc1ncc(-c2ccccc2)n1C | < 50 | > 100 | 57 | > 1.8 | – |
| COc1ccc(-c2cnc(NC(=O)c3ccc(F)cc3)n2Cc2ccccc2)cc1 | < 50 | > 100 | > 100 | 1.4 | – |
| COc1ccc2nc(NC(=O)c3ccc(F)cc3)n(C)c2c1 | < 50 | > 100 | 44 | > 2.3 | – |
| COc1ccc(-c2cnc(NC(=O)c3ccc(F)cc3)n2C2CCCC2)cc1 | < 50 | > 100 | 35 | > 1 | – |
| COc1ccccc1-c1cnc(NC(=O)c2ncc[nH]2)n1C | – | > 50 | > 50 | > 1 | – |
| COc1ccc(-c2cnc(NC(=O)c3cccnc3)n2C)cc1 | < 50 | > 100 | > 100 | > 1 | – |
| COc1ccc(-c2cnc(NC(=O)c3ccc(F)cc3)[nH]2)cc1 | < 50 | > 100 | 38 | > 8.3 | – |
| COc1ccc(-c2cnc(NC(=O)c3ccccc3C)n2C)cc1 | < 50 | > 100 | 65 | > 1.5 | – |
| COc1ccc(-c2cnc(NC(=O)c3ccco3)n2C)cc1 | < 50 | > 100 | 23 | > 4.3 | – |
| COc1ccc(-c2cnc(NC(=O)c3ccc(Br)cc3)n2C)cc1 | < 50 | > 100 | > 100 | > 1 | – |
| COc1ccc(-c2cnc(NC(=O)C3CCCC3)n2C)cc1 | < 50 | > 100 | 83 | > 1.2 | – |
| COc1ccc(-c2cnc(NC(=O)Cc3ccccc3)n2C)cc1 | < 50 | > 100 | 25 | > 4 | – |
| COc1ccc(-c2cnc(NC(=O)c3ccccc3O)n2C)cc1 | < 50 | > 100 | > 100 | > 1 | – |
| COc1ccc(-c2cnc(NC(=O)c3ccccc3C#N)n2C)cc1 | < 50 | > 100 | 14 | > 7.1 | – |
| COc1ccc(-c2cnc(NC(=O)c3ccno3)n2C)cc1 | < 50 | > 100 | > 100 | > 1 | – |
| COc1ccc(-c2cnc(NC(=O)c3ccncc3)n2C)cc1 | < 50 | > 100 | 44 | > 2.3 | – |
| COc1cccc(-c2cnc(NC(=O)c3ncc[nH]3)n2C)c1 | < 50 | > 100 | 8.1 | > 12 | – |
| Cn1c(-c2ccccc2Cl)cnc1NC(=O)c1ncc[nH]1 | – | > 50 | 5.2 | > 9.6 | – |
